Consider four molecules from publication PMC11253855, “Phosphonodiamidate prodrugs of phosphoantigens (ProPAgens) exhibit potent Vγ9/Vδ2 T cell activation and eradication of cancer cells” (RSC Medicinal Chemistry, 2024).

In one data set the test system is Vγ9/Vδ2 T cells. Kind of data set: In vitro Vγ9/Vδ2 T cell activation assay (PBMCs, CD69+ CD25+ by flow cytometry). The format is cell-based, human. Particulars: for Activation of Vγ9/Vδ2 T cells at the highest concentration studied: 100 μM compared with 10 μM; for EC50: Homo sapiens, T-cell, read-out: EC50 (activation of Vγ9/Vδ2 T cells). The method, then:
Subsequently, we studied the ability of these HMBP phosphonodiamidate ProPAgens to activate Vγ9/Vδ2 T cells and elicit their lysis of cancer cells in vitro. For this, peripheral blood mononuclear cells (PBMCs) derived from healthy donors and containing Vγ9/Vδ2 T cells were incubated with increasing concentrations of zoledronate or phosphonodiamidate HMBP ProPAgens 9a–d and 14a–d (up to 100 μM) (Fig. 4). Peripheral blood γδ T cells lack appreciable levels of surface CD69 or CD25 under steady-state conditions, but TCR stimulation upregulates both T cell activation markers.[6] Thus, PAg-responsive Vγ9/Vδ2 T cells were then assessed for the upregulation of CD69 and CD25.
Fig. 4 In vitro phosphonodiamidate ProPAgen-mediated activation of Vγ9/Vδ2 T cells, following overnight incubation with zoledronate, and HMBP ProPAgens 9a–d and 14a–d. Levels of activation are represented as % of Vγ9/Vδ2 T cells that are CD69+ CD25+. Data is shown as mean ± SE (n = 4). (A) Activation of Vγ9/Vδ2 stimulated by phosphonodiamidate ProPAgens 9a–d. (B) Activation of Vγ9/Vδ2 stimulated by ProPAgens 14a–d. (C) Activation of Vγ9Vδ2 stimulated by zoledronate (Zol). (D) EC50 values were calculated using GraphPad Prism v9 based on the results of the activation assay.
As for the activation of Vγ9/Vδ2 T cells by the phosphonodiamidate ProPAgens (9a–d and 14a–d), these were initially tested using a concentration range from […] to 100 μM (Fig. 4A and B).
Healthy donor peripheral blood mononuclear cells (PBMCs) were harvested as previously described.[20] To assess the activation of Vγ9/Vδ2 T cells, PBMCs were seeded into U-bottom tissue culture-treated 96-well plates at a cell density of 500 000 cells per well. The cells were incubated with medium-only (control), in the presence of zoledronate at 10 pM to 100 μM, and with HMBP ProPAgens initially at 10 pM to 100 μM, and then at 1 aM to 100 μM for compounds 9d and 14d in a separate experiment. The cells were incubated at 37 °C/5% CO2 overnight, and stained by flow cytometry for the following markers: viability (Zombie Aqua 1 : 400), CD3 (BV421 1 : 100), CD8 (BV650 1 : 200), Vγ9 (PEcy5 1 : 400), Vδ2 (APC 1 : 200), CD69 (PE 1 : 25), CD25 (FITC 1 : 100). The samples were acquired via LSRFortessa X20 (BD Biosciences), and the data obtained were analyzed using FlowJo v10 and GraphPad Prism v9 software.
In general terms: Flow cytometry measures light scatter and fluorescence of single cells or particles in a stream.

In another data set the test system is T24 cells. The experiment in a line: Europium-based (DELFIA) cytotoxicity assay: Vγ9/Vδ2 T cell killing of drug-treated T24 cells. Particulars: 10 nM ProPAgen for 2 h versus 10 μM zoledronate; effector : target 80 : 1, 1 h. Further details: species or system human. The method, then:
Encouraged by the potency and specificity of our HMBP phosphonodiamidate ProPAgens, especially 9d and 14d, we subsequently studied their ability to sensitize the urinary bladder carcinoma cell line T24 for targeted killing by in vitro expanded Vγ9/Vδ2 T cells (Fig. 5). In brief, T24 cells were incubated in PBS containing 10 μM zoledronate or the indicated HMBP phosphonodiamidate ProPAgens for a period of 2 h. A positive control for cell death (target cells incubated with 10% v/v DELFIA lysis buffer) and media-only treated control (no drug) was also included. The cells were then washed and cocultured with ex vivo expanded Vγ9/Vδ2 T cells for 1 h at 80 : 1 effector : target ratio, and the level of killing of T24 cells was then measured via time-resolved fluorescence.
Fig. 5 Cytotoxicity of Vγ9/Vδ2 T cells toward the phosphonodiamidate ProPAgen-treated T24 cells. % killing of T24 cells was calculated with this formula: [(experimental release − spontaneous release)/(maximal release − spontaneous release)] × 100. […]
To assess the level of killing of drug-treated and untreated tumour cells, a Europium-based cytotoxicity assay was performed (DELFIA, Perkin Elmer) as described elsewhere.[47] […] Time-resolved fluorescence was then measured using a PHERAstar microplate reader (BMG Labtech). […] The data were processed and analysed using Microsoft Excel and GraphPad Prism v9 software.

Data set [1] can be described thus: Human serum stability assay (31P NMR). Particulars: 37 °C, read-out: human serum stability t1/2. Type of data set: in vitro ADME. As for the experimental part: Upon synthesis, we first studied whether these phosphonodiamidate ProPAgens are stable in human serum. As a representative of this class of phosphonodiamidate ProPAgens in the serum stability studies, we chose ProPAgen 9b, which has an iPr ester like the two FDA-approved phosphoramidate prodrugs, sofosbuvir and tenofovir alafenmide.[24,33] Thus, ProPAgen 9b was incubated with human serum at 37 °C for […] and monitored the sample by ^31P NMR, as we reported previously.[20] […] Following the incubation of the phosphonodiamidate ProPAgen 9b with human serum and monitoring of the sample by ^31P-NMR, these original 9b^31P-NMR peaks remained present through the 7.5 h of the study, and no new ^31P-NMR peaks were observed. […] This stability profile is in line with the aryloxy diester phosphoramidate prodrugs of these monophosphonates that we reported[20] before and that of the analogous symmetrical nucleoside phosphorodiamidate prodrugs.[26]
Fig. 2 Stability of the HMBP phosphonodiamidate ProPAgen 9b in human serum at 37 °C for 7.5 h as monitored by ^31P NMR. […]
This experiment was carried out as previously reported.[20,26,40] […] After recording the first ^31P NMR data, 0.3 mL human serum (Merck Life Sciences) was added and monitored by NMR. […] Recorded data were processed and analyzed with Bruker Topspin 2.1 software.

The next data set has as its target T1, carboxypeptidase Y (Saccharomyces cerevisiae, UniProt P00729).
T1 sequence (P00729 112-532): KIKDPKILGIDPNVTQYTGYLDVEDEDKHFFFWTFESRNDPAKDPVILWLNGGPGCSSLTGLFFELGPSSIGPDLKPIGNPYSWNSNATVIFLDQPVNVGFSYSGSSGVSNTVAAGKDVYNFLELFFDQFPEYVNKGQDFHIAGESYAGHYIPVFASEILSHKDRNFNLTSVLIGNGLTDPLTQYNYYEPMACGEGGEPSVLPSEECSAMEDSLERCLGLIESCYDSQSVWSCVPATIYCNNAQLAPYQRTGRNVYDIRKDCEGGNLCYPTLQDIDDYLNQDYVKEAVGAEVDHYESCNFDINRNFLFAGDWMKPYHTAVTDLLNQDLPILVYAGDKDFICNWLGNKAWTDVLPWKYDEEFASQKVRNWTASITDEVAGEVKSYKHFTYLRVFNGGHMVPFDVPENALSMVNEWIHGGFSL
The experiment in a line: Carboxypeptidase Y assay (31P NMR). The format is in vitro ADME. Particulars: recombinant carboxypeptidase Y, 37 °C, 6.5 h. The method, then: Fig. 3 Metabolism of diamidate ProPAgens.
With this postulated mechanism of phosphonodiamidate prodrugs in mind, we subsequently incubated the phosphonodiamidate ProPAgen 9b with recombinant carboxypeptidase Y at 37 °C and monitored the reaction by ^31P-NMR for 6.5 h. […] Upon addition of carboxypeptidase Y and within 0.5 h, a new ^31P NMR triplet (δP = 6.82, 7.27 and 7.72 ppm) appeared and became prominent as the assay proceeded while the original ^31P NMR peaks (δP = 14.16, 14.67 and 15.14 ppm) corresponding to ProPAgen 9b reduced over time.
This experiment was carried out as previously reported.[20,26,40] 5.0 mg of the phosphonodiamidate ProPAgen 9b was dissolved in 0.2 mL of acetone, and 0.4 mL of Trizma buffer (pH 7.4) was added followed by 0.5 mg carboxypeptidase Y in 0.2 ml Trizma buffer (pH 7.4). The experiment was run on NMR phosphorus mode and scanned every half an hour for 6.5 h. The incubation temperature was 37 °C. Recorded data were processed and analyzed with Bruker Topspin 2.1 software.

The test system of a further data set is cancer patients. Further details: method as in PMID 18301889, PMID 20563721. The note with it: in combination with a low dose of IL-2; cited from earlier work.

Each structure is given as a SMILES string.

As to `C/C(=C\CC(F)(F)P(=O)(N[C@@H](C)C(=O)OCc1ccccc1)N[C@@H](C)C(=O)OCc1ccccc1)CO` [9d, Dibenzyl 2,2′-((((E)-1,1-difluoro-5-hydroxy-4-methylpent-3-en-1-yl)phosphoryl)bis(azanediyl))(2S,2′S)-dipropionate], the “Activation of Vγ9/Vδ2 T cells at the highest concentration studied” value in the data set with Vγ9/Vδ2 T cells was “less than that achieved with 10 μM”. The “sensitizing effect for killing of T24 cells by Vγ9/Vδ2 T cells” value with T24 cells was “much more potent”.

For the molecule `C/C(=C\CCP(=O)(N[C@@H](C)C(=O)OCc1ccccc1)N[C@@H](C)C(=O)OCc1ccccc1)CO` [14d, Dibenzyl 2,2′-((((E)-5-hydroxy-4-methylpent-3-en-1-yl)phosphoryl)bis(azanediyl))(2S,2′S)-dipropionate], in the data set with Vγ9/Vδ2 T cells, the “Activation of Vγ9/Vδ2 T cells at the highest concentration studied” value is “less than that achieved with 10 μM” and the EC50 worked out at 0.027 µM. Besides, in the data set on T24 cells, the “sensitizing effect for killing of T24 cells by Vγ9/Vδ2 T cells” value is reported as “much more potent”.

For `C/C(=C\CC(F)(F)P(=O)(N[C@@H](C)C(=O)OC(C)C)N[C@@H](C)C(=O)OC(C)C)CO` [9b, Diisopropyl 2,2′-((((E)-1,1-difluoro-5-hydroxy-4-methylpent-3-en-1-yl)phosphoryl)bis(azanediyl))(2S,2′S)-dipropionate], in data set [1], the half-life at 10 mg/mL is greater than 7.5 h. The “carboxypeptidase Y-mediated breakdown” value on carboxypeptidase Y is “not fully metabolised”. The EC50 with Vγ9/Vδ2 T cells turned out to be 0.167 µM.

For `CC(O)(CBr)CCOP(=O)(O)OP(=O)(O)O` (stereo not drawn) [BrHPP, bromohydrin pyrophosphate], the “safety and tolerability in cancer patients” value in the data set on cancer patients was “safe and well tolerated”.
